Laboratory results as given in patent US10407398B2, “Inhibitors of Pseudomonas aeruginosa LecB” (priority 2015, dated 2019).

What was measured:
[1] = target: T1, LecBPA14 (Pseudomonas aeruginosa, UniProt A0A0H2ZE85); assay: biochemical; format: binding, Pseudomonas aeruginosa UCBPP-PA14
Method: The measured intensities were reduced by buffer values and fluorescence polarization was calculated. The data were analyzed using BMG Labtech MARS software and/or with Graphpad Prism and fitted according to the four parameter variable slope model. […] A minimum of three independent measurements of triplicates each was performed for every ligand.

[2] = target: T2, LecBPAO1 (Pseudomonas aeruginosa, UniProt Q9HYN5); assay: biochemical; format: binding
T2 construct: made in house
T2 sequence (Q9HYN5 entry or part of it): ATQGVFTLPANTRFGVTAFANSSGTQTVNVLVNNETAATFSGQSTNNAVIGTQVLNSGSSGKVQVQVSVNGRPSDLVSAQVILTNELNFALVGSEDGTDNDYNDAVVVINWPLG

[3] = target: T1, LecBPA14; assay: biochemical; format: binding, Pseudomonas aeruginosa UCBPP-PA14; details: LecBPA14; for N: ITC binding stoichiometry, one site binding model
Method: (§1) The temperature of the sample cell was 25° C. The titration was performed with a solution of ligands in the same buffer.

[4] = target: T2, LecBPAO1; assay: Microcalorimetric assay (ITC) for direct binding; details: LecBPAO1; for N: ITC binding stoichiometry, one site binding model; for ΔH / −TΔS: ITC, 25° C.
Method: as §1

T1 sequence (A0A0H2ZE85 entry or part of it): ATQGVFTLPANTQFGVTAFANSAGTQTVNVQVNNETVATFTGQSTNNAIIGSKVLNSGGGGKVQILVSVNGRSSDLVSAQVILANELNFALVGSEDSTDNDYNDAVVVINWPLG

SMILES	IC50 [1] [µM]	IC50 [2] [µM]	other results
CC1O[C@H](CNS(=O)(=O)c2ccsc2)C(O)C(O)[C@@H]1O (stereo partly drawn)	0.64 ± 0.27	1.85 ± 0.13	–
Cc1ccc(S(=O)(=O)NC[C@H]2OC(C)[C@@H](O)C(O)C2O)s1 (stereo partly drawn)	0.65 ± 0.35	3.49 ± 0.21	–
CC1O[C@H](CNS(=O)(=O)c2ccc(Br)s2)C(O)C(O)[C@@H]1O (stereo partly drawn)	0.62 ± 0.39	3.2 ± 0.37	–
CC1O[C@H](CNS(=O)(=O)c2ccco2)C(O)C(O)[C@@H]1O (stereo partly drawn)	0.48 ± 0.01	3.48 ± 0.75	–
Cc1cc(S(=O)(=O)NC[C@H]2OC(C)[C@@H](O)C(O)C2O)c(C(F)(F)F)o1 (stereo partly drawn)	0.49 ± 0.11	3.88 ± 0.7	–
CC1O[C@H](CNS(=O)(=O)c2cn(C)cn2)C(O)C(O)[C@@H]1O (stereo partly drawn)	1.86 ± 0.23	14.2 ± 3.57	–
CC1O[C@H](CNS(=O)(=O)c2ccn(C)n2)C(O)C(O)[C@@H]1O (stereo partly drawn)	0.7 ± 0.03	6.79 ± 1.81	–
Cc1csc(S(=O)(=O)NC[C@H]2OC(C)[C@@H](O)C(O)C2O)c1 (stereo partly drawn)	0.31 ± 0.04	2.51 ± 0.54	–
CCc1ccc(S(=O)(=O)NC[C@H]2OC(C)[C@@H](O)C(O)C2O)s1 (stereo partly drawn)	0.44 ± 0.04	4.22 ± 1.13	–
CC1O[C@H](CNC(=O)c2ccccc2)C(O)C(O)[C@@H]1O (stereo partly drawn)	–	8.73 ± 0.6	–
CC1O[C@H](CNC(=O)c2cc3ccccc3o2)C(O)C(O)[C@@H]1O (stereo partly drawn)	2.56 ± 0.33	10.2 ± 0.86	–
CC1O[C@H](CNS(=O)(=O)c2cccs2)C(O)C(O)[C@@H]1O (stereo partly drawn)	–	–	N [3]: 0.87 ± 0.08; ΔG ([3]; ITC, 25° C.): -8.91 ± 0.0693 kcal/mol; ΔH ([3]; ITC, 25° C.): -12 ± 0.617 kcal/mol; −TΔS ([3]; ITC, 25° C.): 3.04 ± 0.645 kcal/mol; N [4]: 0.92 ± 0.05; ΔH [4]: -11.5 ± 0.0956 kcal/mol; −TΔS [4]: 3.2 ± 0.0335 kcal/mol
Cc1cc(S(=O)(=O)NC[C@H]2OC(C)[C@@H](O)C(O)C2O)c(C)s1 (stereo partly drawn)	–	–	N [3]: 0.98 ± 0.06; ΔH ([3]; ITC, 25° C.): -9.66 ± 0.265 kcal/mol; −TΔS ([3]; ITC, 25° C.): 0.786 ± 0.402 kcal/mol; N [4]: 0.98 ± 0.03; ΔH [4]: -11.3 ± 0.287 kcal/mol; −TΔS [4]: 3.23 ± 0.33 kcal/mol
CC1OCC(O)C(O)(CN)[C@@H]1O (stereo partly drawn) [1-deoxy-3(S)—C-(aminomethyl)-L-fucose]	> 300	> 600	–
CCC1(O)C(O)COC(C)[C@H]1O (stereo partly drawn) [1-deoxy-3(S)—C-(ethyl)-L-fucose]	41.5 ± 9.94	471 ± 104	–
CC(C)C(=O)NCC1(O)C(O)COC(C)[C@H]1O (stereo partly drawn) [1-deoxy-3(S)—C-(isobutyrylamidomethyl)-L-fucose]	62.6 ± 12.4	348 ± 65	–
CC1OCC(O)C(O)(CNS(=O)(=O)C(C)C)[C@@H]1O (stereo partly drawn) [1-deoxy-3(S)—C-(isopropylsulfonamidomethyl)-L-fucose]	286 ± 77	> 600	–
CC1OCC(O)C(C)(O)[C@@H]1O (stereo partly drawn) [1-deoxy-3(S)—C-(methyl)-L-fucose]	6.54 ± 1.34	49.6 ± 7.8	–
CC1OCC(O)C(O)(C(F)(F)F)[C@@H]1O (stereo partly drawn) [1-deoxy-3(S)—C-(trifluoromethyl)-L-fucose]	> 300	> 600	–
CC(=O)NCC[C@@]1(O)C(C)OCC(O)C1O (stereo partly drawn) [1-deoxy-4(R)—C-(ethylacetamide) L-fucose]	0.18 ± 0.02	0.52 ± 0.03	–
